Data on one compound can be found in ChEMBL document CHEMBL1127439, “Structure-activity relationship studies of central nervous system agents. 13. 4-[3-(Benzotriazol-1-yl)propyl]-1-(2-methoxyphenyl)piperazine, a new putative 5-HT1A receptor antagonist, and its analogs” (J Med Chem, 1994).

Assay [1] deals with Rattus norvegicus. As to the kind of experiment: Tested for the effect on 8-OH-DPAT-induced behavior in reserpine pretreated rat against flat body posture at dosage of 2 mg/kg. It is filed as functional.
The test system of assay [2] is Rattus norvegicus. As to the kind of experiment: Tested for the effect on 8-OH-DPAT-induced behavior in reserpine pretreated rat against flat body posture at dosage of 8 mg/kg. It is filed as functional.
The subject of assay [3] is Mus musculus. As to the kind of experiment: Effect on 8-OH-DPAT-induced hypothermia in mice (5 mg/kg) at intraperitoneal dosage of 8 mg/kg of compound after 30 mins. It is filed as functional.
In assay [4] the test system is Mus musculus. As to the kind of experiment: Effect on 8-OH-DPAT-induced hypothermia in mice (5 mg/kg) at intraperitoneal dosage of 2 mg/kg of compound after 30 mins. The class given is functional.
For assay [5], the system named is Rattus norvegicus. In words: Tested for the induction of lower lip retraction (LLR) by the investigated compounds in rat at dosage of 8 mg/kg. The class given is functional.
In assay [6] the test system is Mus musculus. In words: Effect on 8-OH-DPAT-induced hypothermia in mice (5 mg/kg) at intraperitoneal dosage of 1 mg/kg of compound after 15 mins. The class given is functional.
For assay [7], the species on record is Rattus norvegicus. As to the kind of experiment: Selectivity is the ratio between Ki values of 5-HT2 and 5-HT1A.
Assay [8] relates to Rattus norvegicus. As to the kind of experiment: Tested for the effect on 8-OH-DPAT-induced lower lip retraction (LLR) in rat at dosage of 2 mg/kg. The class given is functional.
Assay [9] has as its system Mus musculus. In words: Effect on body temperature in mice at intraperitoneal dosage of 4 mg/kg, (compound administered 30 min before the test) after 45 min. The class given is functional.
The subject of assay [10] is Mus musculus. In words: Effect on body temperature in mice at intraperitoneal dosage of 1 mg/kg, (compound administered 30 min before the test) after 45 min. The class given is functional.
The subject of assay [11] is Mus musculus. As to the kind of experiment: Effect on body temperature in mice at intraperitoneal dosage of 2 mg/kg, (compound administered 30 min before the test) after 90 min. The class given is functional.
In assay [12] the test system is Mus musculus. In words: Effect on body temperature in mice at intraperitoneal dosage of 8 mg/kg, (compound administered 30 min before the test) after 30 min. It is filed as functional.
Assay [13] concerns Mus musculus. In words: Effect on body temperature in mice at intraperitoneal dosage of 2 mg/kg, (compound administered 30 min before the test) after 60 min. It is filed as functional.
For assay [14], the system named is Mus musculus. As to the kind of experiment: Effect on 8-OH-DPAT-induced hypothermia in mice (5 mg/kg) at intraperitoneal dosage of 2 mg/kg of compound after 60 mins. It is filed as functional.
The test system of assay [15] is Mus musculus. As to the kind of experiment: Effect on body temperature in mice at intraperitoneal dosage of 2 mg/kg, (compound administered 30 min before the test) after 45 min. It is filed as functional.
The test system of assay [16] is Rattus norvegicus. In words: Tested for the effect on 8-OH-DPAT-induced behavior in reserpine pretreated rat against flat body posture at dosage of 4 mg/kg. It is filed as functional.
In assay [17] the test system is Rattus norvegicus. In words: Tested for the effect on 8-OH-DPAT-induced behavior in reserpine pretreated rat against forepaw treading at dosage of 8 mg/kg. The class given is functional.

With `COc1ccccc1N1CCN(CCCn2nnc3ccccc32)CC1`, the Behavioral score came out at 14.8 in assay [1], 8 in assay [2], 11.5 in [16] and 3.7 in assay [17]. In addition, the Delta t in assay [3] was determined as 0.4 °C; in assay [4], 0.2 °C; in assay [6], 1.5 °C; in assay [9], 0.2 °C; in assay [10], 0.1 °C; in assay [11] it was 0.1 °C. Further, the Delta t in [12] worked out at 0.4 °C; in assay [13] it was 0.2 °C; in assay [14], 0.1 °C; in assay [15] it was 0.1 °C. Besides, the LLR score in assay [5] is given as 0.1; in assay [8] it was 2.3. In assay [7], the Selectivity is 69.
